From PubChem BioAssay AID1963825 (Molecular Pharmacology Branch, DTP, NCI, 2024)

Test: Anticancer human tumor 997537-175-T-J1-PDC patient-derived colon adenocarcinoma cell line growth inhibition [POLQ]
Settings: 997537-175-T-J1-PDC complex spheroid viability, combination with POLQ inhibitors; for IC50: curve of first compound; for viability, T/C: stronger effect = lower value
Method in brief: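 Growth inhibition in 3D: complex spheroids (tumor PDC, HUVEC, MSC) treated with POLQ inhibitor combinations; where Cmax unknown, highest tested concentration 10 microM, except SN-38 at 1 microM.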

[1] = second compound 0.0316 µM, first compound 0.0316 µM
[2] = second compound 0.0316 µM, first compound 0.1 µM
[3] = second compound 0.0316 µM, first compound 0.316 µM
[4] = second compound 0.0316 µM, first compound 1 µM
[5] = second compound 0.0316 µM, first compound 3.16 µM
[6] = second compound 0.0316 µM, first compound 10 µM
[7] = second compound 0.1 µM, first compound 0.0316 µM
[8] = second compound 0.1 µM, first compound 0.1 µM
[9] = second compound 0.1 µM, first compound 0.316 µM
[10] = second compound 0.1 µM, first compound 1 µM
[11] = second compound 0.1 µM, first compound 3.16 µM
[12] = second compound 0.1 µM, first compound 10 µM
[13] = second compound 0.316 µM, first compound 0.0316 µM
[14] = second compound 0.316 µM, first compound 0.1 µM
[15] = second compound 0.316 µM, first compound 0.316 µM
[16] = second compound 0.316 µM, first compound 1 µM
[17] = second compound 0.316 µM, first compound 3.16 µM
[18] = second compound 0.316 µM, first compound 10 µM
[19] = second compound 1 µM, first compound 0.0316 µM
[20] = second compound 1 µM, first compound 0.1 µM
[21] = second compound 1 µM, first compound 0.316 µM
[22] = second compound 1 µM, first compound 1 µM
[23] = second compound 1 µM, first compound 3.16 µM
[24] = second compound 1 µM, first compound 10 µM
[25] = second compound 3.16 µM, first compound 0.0316 µM
[26] = second compound 3.16 µM, first compound 0.1 µM
[27] = second compound 3.16 µM, first compound 0.316 µM
[28] = second compound 3.16 µM, first compound 1 µM
[29] = second compound 3.16 µM, first compound 3.16 µM
[30] = second compound 3.16 µM, first compound 10 µM
[31] = second compound 10 µM, first compound 0.0316 µM
[32] = second compound 10 µM, first compound 0.1 µM
[33] = second compound 10 µM, first compound 0.316 µM
[34] = second compound 10 µM, first compound 1 µM
[35] = second compound 10 µM, first compound 3.16 µM
[36] = second compound 10 µM, first compound 10 µM
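Further: luminescence signal used as a surrogate for viable cells; spheroids exposed to drugs for seven days before readout.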

## CCCS(=O)(=O)Nc1ccc(F)c(C(=O)c2c[nH]c3ncc(-c4ccc(Cl)cc4)cc23)c1F + Nc1ccc(C#CCN(C(=O)Cc2ncc(C(F)(F)F)cc2C(F)(F)F)c2ccc(F)cc2)nn1
Second compound 0.0316 µM
  IC50: 5.51 µM
Second compound 0.1 µM
  IC50: 7.31 µM
Second compound 0.316 µM
  IC50: 5.97 µM
Second compound 1 µM
  IC50: 5.25 µM
Second compound 3.16 µM
  IC50: 6 µM
Second compound 10 µM
  IC50: 6.76 µM
[1]
  viability, T/C: 81.8%
[2]
  viability, T/C: 88.9%
[3]
  viability, T/C: 80.7%
[4]
  viability, T/C: 70.3%
[5]
  viability, T/C: 74.2%
[6]
  viability, T/C: 27.2%
[7]
  viability, T/C: 101%
[8]
  viability, T/C: 86.5%
[9]
  viability, T/C: 80.9%
[10]
  viability, T/C: 71.3%
[11]
  viability, T/C: 82.8%
[12]
  viability, T/C: 37.9%
[13]
  viability, T/C: 90.3%
[14]
  viability, T/C: 88.3%
[15]
  viability, T/C: 78.4%
[16]
  viability, T/C: 71.9%
[17]
  viability, T/C: 79.3%
[18]
  viability, T/C: 26.4%
[19]
  viability, T/C: 84.9%
[20]
  viability, T/C: 96.4%
[21]
  viability, T/C: 84.2%
[22]
  viability, T/C: 86.4%
[23]
  viability, T/C: 66.8%
[24]
  viability, T/C: 28.5%
[25]
  viability, T/C: 85.5%
[26]
  viability, T/C: 89.3%
[27]
  viability, T/C: 89.5%
[28]
  viability, T/C: 79.3%
[29]
  viability, T/C: 73.1%
[30]
  viability, T/C: 32.6%
[31]
  viability, T/C: 104%
[32]
  viability, T/C: 83.5%
[33]
  viability, T/C: 94%
[34]
  viability, T/C: 77.5%
[35]
  viability, T/C: 71.4%
[36]
  viability, T/C: 39.9%

## CC(C)n1c(=O)n(C)c2cnc3cc(F)c(-c4ccc(OCCCN5CCCCC5)nc4)cc3c21 + Cc1cccc(N(C)C(=O)C2C(O)CCN2c2nc(C)cc(C(F)(F)F)c2C#N)c1
Second compound 0.0316 µM
  IC50: > 10 µM
Second compound 0.1 µM
  IC50: > 10 µM
Second compound 0.316 µM
  IC50: > 10 µM
Second compound 1 µM
  IC50: > 10 µM
Second compound 3.16 µM
  IC50: > 10 µM
Second compound 10 µM
  IC50: > 10 µM
[1]
  viability, T/C: 94.2%
[2]
  viability, T/C: 91.7%
[3]
  viability, T/C: 105%
[4]
  viability, T/C: 97.5%
[5]
  viability, T/C: 98.7%
[6]
  viability, T/C: 82.7%
[7]
  viability, T/C: 96.7%
[8]
  viability, T/C: 106%
[9]
  viability, T/C: 90.8%
[10]
  viability, T/C: 98.6%
[11]
  viability, T/C: 103%
[12]
  viability, T/C: 81.3%
[13]
  viability, T/C: 103%
[14]
  viability, T/C: 99.9%
[15]
  viability, T/C: 105%
[16]
  viability, T/C: 103%
[17]
  viability, T/C: 90.2%
[18]
  viability, T/C: 87.7%
[19]
  viability, T/C: 87.2%
[20]
  viability, T/C: 102%
[21]
  viability, T/C: 92.5%
[22]
  viability, T/C: 86%
[23]
  viability, T/C: 96.8%
[24]
  viability, T/C: 91.2%
[25]
  viability, T/C: 87.1%
[26]
  viability, T/C: 96.3%
[27]
  viability, T/C: 90.2%
[28]
  viability, T/C: 80%
[29]
  viability, T/C: 98.8%
[30]
  viability, T/C: 73.6%
[31]
  viability, T/C: 99.6%
[32]
  viability, T/C: 101%
[33]
  viability, T/C: 86.8%
[34]
  viability, T/C: 83.8%
[35]
  viability, T/C: 91.8%
[36]
  viability, T/C: 76.6%

## C#Cc1c(F)ccc2cc(O)cc(-c3ncc4c(N5CC6CCC(C5)N6)nc(OCC56CCCN5CC(F)C6)nc4c3F)c12 (stereo unspecified) + Nc1ccc(C#CCN(C(=O)Cc2ncc(C(F)(F)F)cc2C(F)(F)F)c2ccc(F)cc2)nn1
Second compound 0.0316 µM
  IC50: > 10 µM
Second compound 0.1 µM
  IC50: > 10 µM
Second compound 0.316 µM
  IC50: > 10 µM
Second compound 1 µM
  IC50: > 10 µM
Second compound 3.16 µM
  IC50: > 10 µM
Second compound 10 µM
  IC50: > 10 µM
[1]
  viability, T/C: 92.4%
[2]
  viability, T/C: 93%
[3]
  viability, T/C: 108%
[4]
  viability, T/C: 106%
[5]
  viability, T/C: 102%
[6]
  viability, T/C: 96.5%
[7]
  viability, T/C: 101%
[8]
  viability, T/C: 110%
[9]
  viability, T/C: 101%
[10]
  viability, T/C: 86.8%
[11]
  viability, T/C: 94.1%
[12]
  viability, T/C: 96.7%
[13]
  viability, T/C: 105%
[14]
  viability, T/C: 105%
[15]
  viability, T/C: 101%
[16]
  viability, T/C: 96.9%
[17]
  viability, T/C: 103%
[18]
  viability, T/C: 110%
[19]
  viability, T/C: 106%
[20]
  viability, T/C: 103%
[21]
  viability, T/C: 95.8%
[22]
  viability, T/C: 82.8%
[23]
  viability, T/C: 106%
[24]
  viability, T/C: 98.1%
[25]
  viability, T/C: 94.9%
[26]
  viability, T/C: 103%
[27]
  viability, T/C: 99.5%
[28]
  viability, T/C: 92.7%
[29]
  viability, T/C: 104%
[30]
  viability, T/C: 107%
[31]
  viability, T/C: 104%
[32]
  viability, T/C: 102%
[33]
  viability, T/C: 100%
[34]
  viability, T/C: 112%
[35]
  viability, T/C: 98.8%
[36]
  viability, T/C: 110%
